The kinase profiling compilation of Christmann-Franck et al. (2016)
Several values for one entry are separate records, joined by “and”; a condition that tells them apart may be missing. Identical values can stand only once.

Assays:
Experiment in all cases: KINOMEscan competition binding
Settings in all cases: compound 10.0 µM
[1] = molecular target: TGFBR1 (human) (UniProt P36897)
[2] = molecular target: MYLK (human) (UniProt Q15746)
[3] = molecular target: STK32B (human) (UniProt Q9NY57)
[4] = molecular target: MAPK7 (human) (UniProt Q13164)
Sequence of MAPK7 (human) (Q13164 whole entry, looked up): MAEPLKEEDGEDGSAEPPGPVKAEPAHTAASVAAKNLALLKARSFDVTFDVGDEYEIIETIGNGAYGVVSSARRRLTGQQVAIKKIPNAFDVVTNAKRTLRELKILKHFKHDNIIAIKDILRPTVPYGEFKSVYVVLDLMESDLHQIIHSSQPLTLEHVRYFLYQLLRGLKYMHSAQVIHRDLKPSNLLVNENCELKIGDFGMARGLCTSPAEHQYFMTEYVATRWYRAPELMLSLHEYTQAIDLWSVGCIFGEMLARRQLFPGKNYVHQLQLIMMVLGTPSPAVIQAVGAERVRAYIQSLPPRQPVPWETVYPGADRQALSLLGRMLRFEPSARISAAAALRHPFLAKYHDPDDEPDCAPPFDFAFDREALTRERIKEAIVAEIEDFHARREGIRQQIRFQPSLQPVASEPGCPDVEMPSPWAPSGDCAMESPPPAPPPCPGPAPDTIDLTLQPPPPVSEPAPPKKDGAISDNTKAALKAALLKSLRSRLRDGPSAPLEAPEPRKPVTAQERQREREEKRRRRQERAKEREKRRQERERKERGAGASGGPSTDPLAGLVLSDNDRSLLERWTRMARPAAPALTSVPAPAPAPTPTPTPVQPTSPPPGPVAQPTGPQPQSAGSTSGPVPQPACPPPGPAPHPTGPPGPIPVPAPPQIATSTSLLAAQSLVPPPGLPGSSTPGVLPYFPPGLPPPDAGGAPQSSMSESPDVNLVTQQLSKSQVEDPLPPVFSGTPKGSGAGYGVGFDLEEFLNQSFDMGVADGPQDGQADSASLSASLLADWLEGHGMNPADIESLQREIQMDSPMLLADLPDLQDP

[5] = molecular target: CDK8 (human) (UniProt P49336)
[6] = molecular target: TLK2 (human) (UniProt Q86UE8)
[7] = molecular target: PHKG2 (human) (UniProt P15735)
[8] = molecular target: PIM2 (human) (UniProt Q9P1W9)
[9] = molecular target: PKMYT1 (human) (UniProt Q99640)
Sequence of PKMYT1 (human) (Q99640 whole entry, looked up): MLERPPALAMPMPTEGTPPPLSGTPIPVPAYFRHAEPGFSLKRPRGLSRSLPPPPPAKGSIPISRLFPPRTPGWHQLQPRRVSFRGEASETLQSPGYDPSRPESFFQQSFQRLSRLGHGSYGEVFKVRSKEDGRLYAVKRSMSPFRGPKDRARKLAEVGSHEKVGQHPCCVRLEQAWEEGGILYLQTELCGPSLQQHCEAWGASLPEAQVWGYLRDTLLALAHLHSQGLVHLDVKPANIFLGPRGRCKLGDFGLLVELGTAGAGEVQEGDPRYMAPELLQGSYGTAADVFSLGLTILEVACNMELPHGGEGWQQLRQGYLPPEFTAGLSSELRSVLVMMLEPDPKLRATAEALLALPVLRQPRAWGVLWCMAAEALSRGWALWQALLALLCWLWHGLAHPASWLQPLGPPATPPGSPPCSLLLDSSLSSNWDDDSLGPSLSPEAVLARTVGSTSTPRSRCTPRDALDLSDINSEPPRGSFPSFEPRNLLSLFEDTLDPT

[10] = molecular target: PIP5K1A (human) (UniProt Q99755)
[11] = molecular target: MAP4K3 (human) (UniProt Q8IVH8)
Sequence of MAP4K3 (human) (Q8IVH8 whole entry, looked up): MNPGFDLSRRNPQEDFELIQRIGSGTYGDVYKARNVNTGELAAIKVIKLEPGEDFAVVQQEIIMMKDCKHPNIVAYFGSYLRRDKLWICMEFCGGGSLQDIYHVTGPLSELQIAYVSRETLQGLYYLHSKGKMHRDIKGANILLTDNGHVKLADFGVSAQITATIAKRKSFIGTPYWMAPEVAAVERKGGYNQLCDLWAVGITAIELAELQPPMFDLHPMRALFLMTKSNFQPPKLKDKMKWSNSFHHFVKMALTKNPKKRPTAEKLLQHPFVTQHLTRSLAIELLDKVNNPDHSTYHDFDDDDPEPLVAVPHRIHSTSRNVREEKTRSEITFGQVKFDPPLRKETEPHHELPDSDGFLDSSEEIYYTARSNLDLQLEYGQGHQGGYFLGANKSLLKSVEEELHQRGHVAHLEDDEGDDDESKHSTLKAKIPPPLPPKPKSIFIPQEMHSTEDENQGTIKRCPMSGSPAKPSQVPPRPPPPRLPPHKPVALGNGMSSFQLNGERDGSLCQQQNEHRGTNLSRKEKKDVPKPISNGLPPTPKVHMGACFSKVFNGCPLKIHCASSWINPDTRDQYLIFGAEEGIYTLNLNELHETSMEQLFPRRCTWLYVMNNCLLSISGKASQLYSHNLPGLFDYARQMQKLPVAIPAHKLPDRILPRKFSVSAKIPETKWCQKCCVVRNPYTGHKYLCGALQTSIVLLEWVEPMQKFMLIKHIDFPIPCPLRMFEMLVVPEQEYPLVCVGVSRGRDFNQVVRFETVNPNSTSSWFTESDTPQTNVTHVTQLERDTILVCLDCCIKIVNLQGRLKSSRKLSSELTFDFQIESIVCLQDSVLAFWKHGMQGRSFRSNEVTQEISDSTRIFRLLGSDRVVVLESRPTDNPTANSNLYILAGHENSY

[12] = molecular target: PRKD2 (human) (UniProt Q9BZL6)
[13] = molecular target: STK16 (human) (UniProt O75716)
[14] = molecular target: CLK4 (human) (UniProt Q9HAZ1)
[15] = molecular target: MAPK4 (human) (UniProt P31152)
[16] = molecular target: PLK1 (human) (UniProt P53350)
[17] = molecular target: BMPR1B (human) (UniProt O00238)
[18] = molecular target: FER (human) (UniProt P16591)
Sequence of FER (human) (P16591 whole entry, looked up): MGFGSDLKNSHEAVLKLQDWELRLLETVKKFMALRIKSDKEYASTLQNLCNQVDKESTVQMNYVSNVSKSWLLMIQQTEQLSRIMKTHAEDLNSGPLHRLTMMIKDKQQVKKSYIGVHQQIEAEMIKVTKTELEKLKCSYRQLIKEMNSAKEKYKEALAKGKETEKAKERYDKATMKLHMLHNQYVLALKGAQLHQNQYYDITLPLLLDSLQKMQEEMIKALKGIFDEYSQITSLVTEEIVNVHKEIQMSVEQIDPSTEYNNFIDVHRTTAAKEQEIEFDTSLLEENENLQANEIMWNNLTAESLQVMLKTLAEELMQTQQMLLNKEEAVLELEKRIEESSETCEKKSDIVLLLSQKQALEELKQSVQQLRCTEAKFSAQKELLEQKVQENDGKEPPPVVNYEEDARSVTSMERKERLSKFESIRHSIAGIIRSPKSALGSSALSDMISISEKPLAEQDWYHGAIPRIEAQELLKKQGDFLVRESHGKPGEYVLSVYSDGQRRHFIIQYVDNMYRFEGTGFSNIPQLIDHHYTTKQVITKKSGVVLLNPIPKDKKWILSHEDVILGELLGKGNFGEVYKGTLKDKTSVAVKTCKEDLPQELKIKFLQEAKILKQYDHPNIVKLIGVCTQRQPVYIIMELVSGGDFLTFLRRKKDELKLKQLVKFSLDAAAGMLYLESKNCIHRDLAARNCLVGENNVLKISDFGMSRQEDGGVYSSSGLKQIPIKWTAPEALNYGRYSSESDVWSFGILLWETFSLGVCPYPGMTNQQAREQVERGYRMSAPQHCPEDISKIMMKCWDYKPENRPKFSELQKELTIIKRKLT

[19] = molecular target: FGR (human) (UniProt P09769)
[20] = molecular target: NTRK1 (human) (UniProt P04629)
[21] = molecular target: TXK (human) (UniProt P42681)
Sequence of TXK (human) (P42681 whole entry, looked up): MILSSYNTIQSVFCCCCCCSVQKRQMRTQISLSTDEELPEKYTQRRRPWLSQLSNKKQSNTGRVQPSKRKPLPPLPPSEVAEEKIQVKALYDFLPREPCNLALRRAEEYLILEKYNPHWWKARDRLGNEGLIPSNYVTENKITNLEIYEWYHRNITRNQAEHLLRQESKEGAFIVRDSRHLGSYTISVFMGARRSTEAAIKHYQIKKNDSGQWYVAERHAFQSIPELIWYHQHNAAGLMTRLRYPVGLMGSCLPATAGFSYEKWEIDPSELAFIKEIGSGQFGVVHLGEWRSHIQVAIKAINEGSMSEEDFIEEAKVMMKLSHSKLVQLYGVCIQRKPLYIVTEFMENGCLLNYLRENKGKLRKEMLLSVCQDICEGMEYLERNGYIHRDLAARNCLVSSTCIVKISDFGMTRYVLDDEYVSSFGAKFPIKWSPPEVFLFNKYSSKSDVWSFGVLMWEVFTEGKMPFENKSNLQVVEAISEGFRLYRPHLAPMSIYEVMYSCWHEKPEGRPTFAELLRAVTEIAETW

[22] = system: FLT3 (human), P36888 [N841I]
[23] = molecular target: RET (human) (UniProt P07949)
[24] = molecular target: PRKG1 (human) (UniProt Q13976)
[25] = molecular target: CDK15 (human) (UniProt Q96Q40)
[26] = molecular target: CHEK2 (human) (UniProt O96017)
[27] = molecular target: SRMS (human) (UniProt Q9H3Y6)
[28] = molecular target: STK32C (human) (UniProt Q86UX6)
[29] = molecular target: PDGFRA (human) (UniProt P16234)
[30] = molecular target: NEK5 (human) (UniProt Q6P3R8)
[31] = molecular target: MKNK1 (human) (UniProt Q9BUB5)
[32] = molecular target: TESK1 (human) (UniProt Q15569)
Sequence of TESK1 (human) (Q15569 whole entry, looked up): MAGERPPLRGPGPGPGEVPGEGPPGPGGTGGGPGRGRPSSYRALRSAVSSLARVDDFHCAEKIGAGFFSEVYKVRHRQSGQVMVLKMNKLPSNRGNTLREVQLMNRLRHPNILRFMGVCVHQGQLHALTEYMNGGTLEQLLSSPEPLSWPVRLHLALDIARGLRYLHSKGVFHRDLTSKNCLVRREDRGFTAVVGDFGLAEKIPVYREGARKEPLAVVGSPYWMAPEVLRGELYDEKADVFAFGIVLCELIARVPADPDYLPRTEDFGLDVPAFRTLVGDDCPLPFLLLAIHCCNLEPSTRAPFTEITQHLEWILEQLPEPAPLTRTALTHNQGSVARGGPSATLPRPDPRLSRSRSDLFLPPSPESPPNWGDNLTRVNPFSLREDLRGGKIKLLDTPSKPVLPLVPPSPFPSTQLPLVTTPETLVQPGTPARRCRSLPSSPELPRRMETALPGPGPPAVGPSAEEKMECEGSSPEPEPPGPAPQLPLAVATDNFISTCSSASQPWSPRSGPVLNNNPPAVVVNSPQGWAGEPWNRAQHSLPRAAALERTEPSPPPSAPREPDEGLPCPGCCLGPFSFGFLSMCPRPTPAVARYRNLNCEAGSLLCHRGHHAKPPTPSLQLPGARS

[33] = molecular target: FLT3 (human) (UniProt P36888)
[34] = molecular target: ADCK4 (human) (UniProt Q96D53)
[35] = molecular target: DAPK3 (human) (UniProt O43293)
Sequence of DAPK3 (human) (O43293 whole entry, looked up): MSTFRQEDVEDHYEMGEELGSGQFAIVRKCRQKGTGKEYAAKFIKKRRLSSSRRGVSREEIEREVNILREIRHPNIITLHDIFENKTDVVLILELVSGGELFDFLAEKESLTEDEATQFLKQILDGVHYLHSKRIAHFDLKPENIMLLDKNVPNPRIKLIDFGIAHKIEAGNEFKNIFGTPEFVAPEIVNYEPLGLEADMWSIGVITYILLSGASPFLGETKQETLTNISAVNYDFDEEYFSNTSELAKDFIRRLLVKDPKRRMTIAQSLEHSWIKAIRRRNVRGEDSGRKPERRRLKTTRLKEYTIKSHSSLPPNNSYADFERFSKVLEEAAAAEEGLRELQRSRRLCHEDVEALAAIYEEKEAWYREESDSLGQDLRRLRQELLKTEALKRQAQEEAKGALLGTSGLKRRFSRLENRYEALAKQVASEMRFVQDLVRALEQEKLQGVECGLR

[36] = molecular target: CAMK1G (human) (UniProt Q96NX5)
[37] = molecular target: MAP2K4 (human) (UniProt P45985)
[38] = molecular target: MAP2K1 (human) (UniProt Q02750)
[39] = molecular target: CDK9 (human) (UniProt P50750)
Sequence of CDK9 (human) (P50750 whole entry, looked up): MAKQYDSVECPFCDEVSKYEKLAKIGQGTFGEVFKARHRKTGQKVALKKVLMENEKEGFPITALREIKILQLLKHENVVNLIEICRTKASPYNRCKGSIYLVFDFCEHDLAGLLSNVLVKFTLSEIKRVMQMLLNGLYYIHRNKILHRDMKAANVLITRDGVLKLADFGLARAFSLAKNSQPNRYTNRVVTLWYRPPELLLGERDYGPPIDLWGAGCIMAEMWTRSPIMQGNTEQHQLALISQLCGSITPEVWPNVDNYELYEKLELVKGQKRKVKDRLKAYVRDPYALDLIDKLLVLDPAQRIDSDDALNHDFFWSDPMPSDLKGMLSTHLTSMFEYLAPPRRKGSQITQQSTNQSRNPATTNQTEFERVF

[40] = molecular target: LCK (human) (UniProt P06239)
[41] = molecular target: TEK (human) (UniProt Q02763)

| Structure (SMILES) | kinase still bound, per cent of control [1] | kinase still bound, per cent of control [2] | kinase still bound, per cent of control [3] | kinase still bound, per cent of control [4] | kinase still bound, per cent of control [5] | kinase still bound, per cent of control [7] | kinase still bound, per cent of control [8] | kinase still bound, per cent of control [9] | kinase still bound, per cent of control [10] | kinase still bound, per cent of control [11] | kinase still bound, per cent of control [12] | kinase still bound, per cent of control [13] | kinase still bound, per cent of control [14] | kinase still bound, per cent of control [15] | kinase still bound, per cent of control [16] | kinase still bound, per cent of control [17] | kinase still bound, per cent of control [18] | kinase still bound, per cent of control [19] | kinase still bound, per cent of control [20] | kinase still bound, per cent of control [21] | also measured |
| --- | --- | --- | --- | --- | --- | --- | --- | --- | --- | --- | --- | --- | --- | --- | --- | --- | --- | --- | --- | --- | --- |
| N#Cc1c(NC(=O)c2cccc3ccccc23)sc2c1CCCC2 | 100% | 99% | 83% | 96% | 100% | 83% | 69% | 77% | 100% | 79% | 88% | 89% | 84% | 90% | 81% | 84% | 92% | 100% | 100% | 100% | kinase still bound, per cent of control [6]: 100%; kinase still bound, per cent of control [22]: 86%; kinase still bound, per cent of control [23]: 94%; kinase still bound, per cent of control [24]: 88%; kinase still bound, per cent of control [25]: 69%; kinase still bound, per cent of control [26]: 84%; kinase still bound, per cent of control [27]: 84%; kinase still bound, per cent of control [28]: 97%; kinase still bound, per cent of control [29]: 89%; kinase still bound, per cent of control [30]: 79%; kinase still bound, per cent of control [31]: 100%; kinase still bound, per cent of control [32]: 83%; kinase still bound, per cent of control [33]: 94% and 87%; kinase still bound, per cent of control [34]: 100%; kinase still bound, per cent of control [35]: 88%; kinase still bound, per cent of control [36]: 90%; kinase still bound, per cent of control [37]: 94%; kinase still bound, per cent of control [38]: 98%; kinase still bound, per cent of control [39]: 83%; kinase still bound, per cent of control [40]: 85% |
| CCOc1cc2ncc(C#N)c(Nc3ccc(OCc4ccccn4)c(Cl)c3)c2cc1NC(=O)/C=C/CN(C)C | 100% | 73% | 73% | 100% | 100% | 92% | 100% | 84% | 100% | 2.1% | 50% | 96% | 100% | 100% | 57% | 81% | 37% | 40% | 77% | 86% | kinase still bound, per cent of control [41]: 56%; kinase still bound, per cent of control [22]: 64%; kinase still bound, per cent of control [24]: 94%; kinase still bound, per cent of control [25]: 98%; kinase still bound, per cent of control [26]: 79%; kinase still bound, per cent of control [27]: 91%; kinase still bound, per cent of control [28]: 100%; kinase still bound, per cent of control [29]: 100%; kinase still bound, per cent of control [30]: 100%; kinase still bound, per cent of control [31]: 29%; kinase still bound, per cent of control [32]: 100%; kinase still bound, per cent of control [33]: 100%; kinase still bound, per cent of control [34]: 98%; kinase still bound, per cent of control [35]: 91%; kinase still bound, per cent of control [36]: 100%; kinase still bound, per cent of control [37]: 72%; kinase still bound, per cent of control [38]: 0.4%; kinase still bound, per cent of control [39]: 94%; kinase still bound, per cent of control [40]: 3.7% |
